Assay results taken from patent US20100009970A1, “COMPOSITIONS AND METHODS FOR TREATMENT OF VIRAL DISEASES” (Combinatorx (Singapore) Pte. Ltd., priority 2008, published 2010).
Structures can show the parent of a compound that is named as a salt. Where two headings read alike, the source gives them in different places.

Assays:
[1] = test system: Huh7 cells expressing a subgenomic RNA replicon of Con1 (genotype 1b) sequence origin
in vitro = conditions: human
[2] = test system: Huh7 cells expressing a subgenomic RNA replicon of Con1 (genotype 1b) sequence origin; assay: microbe, parasite or virus in culture; conditions: Hepatitis C virus
NRI = NRI (Homo sapiens, UniProt P23975); assay type: binding
Sequence of NRI (P23975 whole entry): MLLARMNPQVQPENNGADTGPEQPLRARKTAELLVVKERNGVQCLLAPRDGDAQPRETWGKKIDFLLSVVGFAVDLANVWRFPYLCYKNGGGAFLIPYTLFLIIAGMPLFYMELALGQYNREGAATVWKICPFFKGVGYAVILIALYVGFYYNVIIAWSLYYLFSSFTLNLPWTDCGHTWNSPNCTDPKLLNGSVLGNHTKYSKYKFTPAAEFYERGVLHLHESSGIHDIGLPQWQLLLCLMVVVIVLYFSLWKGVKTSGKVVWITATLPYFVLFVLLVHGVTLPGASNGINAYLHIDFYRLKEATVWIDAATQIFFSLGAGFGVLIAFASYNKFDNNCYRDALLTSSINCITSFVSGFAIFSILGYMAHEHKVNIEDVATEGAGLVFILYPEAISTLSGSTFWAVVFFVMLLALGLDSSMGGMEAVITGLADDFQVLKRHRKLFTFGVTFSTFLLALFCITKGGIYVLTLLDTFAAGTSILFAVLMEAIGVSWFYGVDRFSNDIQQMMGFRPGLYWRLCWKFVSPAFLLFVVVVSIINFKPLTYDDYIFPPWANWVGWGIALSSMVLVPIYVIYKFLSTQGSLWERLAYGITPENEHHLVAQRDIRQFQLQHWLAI

[3] = in vivo
SRI = SRI (Homo sapiens, UniProt P31645); assay: BBB/Neurotransmitter Binding: SRI; conditions: Table 19
Sequence of SRI (P31645 whole entry): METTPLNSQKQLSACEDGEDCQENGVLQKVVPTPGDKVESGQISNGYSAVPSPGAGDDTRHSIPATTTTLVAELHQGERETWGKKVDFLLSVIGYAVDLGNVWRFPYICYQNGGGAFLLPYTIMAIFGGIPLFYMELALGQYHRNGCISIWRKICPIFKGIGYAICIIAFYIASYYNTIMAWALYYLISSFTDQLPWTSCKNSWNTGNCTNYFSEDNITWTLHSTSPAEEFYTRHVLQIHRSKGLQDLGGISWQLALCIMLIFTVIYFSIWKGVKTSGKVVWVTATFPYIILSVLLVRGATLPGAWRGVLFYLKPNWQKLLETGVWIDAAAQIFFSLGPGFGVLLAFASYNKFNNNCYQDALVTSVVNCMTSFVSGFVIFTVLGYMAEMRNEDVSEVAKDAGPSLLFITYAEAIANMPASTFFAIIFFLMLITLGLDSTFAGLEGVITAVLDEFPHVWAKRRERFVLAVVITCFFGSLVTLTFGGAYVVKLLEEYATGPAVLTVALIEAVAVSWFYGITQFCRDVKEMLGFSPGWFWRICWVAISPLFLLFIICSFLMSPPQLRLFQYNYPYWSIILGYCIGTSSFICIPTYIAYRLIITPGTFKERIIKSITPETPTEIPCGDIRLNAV

[4] = Huh-7, read-out: IC50 (uM) [SG]
[5] = Huh-7, read-out: Max Effect@CC30 (inhibition)
[6] = Huh-7, read-out: Max effect @CC30 (%)
[7] = Huh-7, read-out: Max Effect @CC30 (inhibition)
[8] = GETYPE1B, Huh-7, 72 h, read-out: Max Effect @CC30 (inhibition)
[9] = Huh-7, 48 h, read-out: Max Effect

Structure (SMILES): CN[C@H]1CC[C@@H](c2ccc(Cl)c(Cl)c2)c2ccccc21.Cl [(1R,4S) Sertraline Hydrochloride]
- Max Effect@CC30 (inhibition) [1]: 90.8 ± 1.6%
- IC90 ([1]; Hydrochloride): 12.1 ± 0.83 µM
- CC50 (Huh7 parental cells): 14.2 ± 0.16 µM

Structure (SMILES): CN[C@H]1CC[C@H](c2ccc(Cl)c(Cl)c2)c2ccccc21.Cl [(1S,4R) Sertraline Hydrochloride]
- Max Effect@CC30 (inhibition) [1]: 50 ± 17.4%
- CC50 (Huh7 parental cells): 7.51 ± 0.8 µM

Structure (SMILES): CN[C@H]1CC[C@@H](c2ccc(Cl)c(Cl)c2)c2ccc(CS(C)(=O)=O)cc21 [(1S,4S)-4-(3,4-dichlorophenyl)-N-methyl-7-(methylsulfonylmethyl)-1,2,3,4-tetrahydronaphthalen-1-amine]
- CC50 (in vitro; CC50 (uM)): 13 µM
- CC50 (in vitro; CC50 (uM) [SG]): 13 µM
- IC50 ([1]; read-out: IC50 (uM) [SG]): 2.33 µM
- IC50 ([2]; Huh-7): 1.68 µM
- IC90 ([2]; Huh-7): 7.89 µM
- IC50 [2, 4]: 1.68 µM
- Emax [2, 5]: 84.8%
- Emax [2, 6]: 84.8%
- IC50 ([2]; Huh-7, read-out: SA IC50 (uM)): 1.68 µM
- CC50 (Huh7 parental cells; human): 14.2 µM

Structure (SMILES): Cl.N[C@H]1CC[C@@H](c2ccc(Cl)c(Cl)c2)c2ccccc21 [(1S,4S)-Desmethyl Sertraline, Hydrochloride]
- IC50 [1]: 5.35 µM
- Max Effect [1]: 98%
- Synergy Score [1]: 2.14
- TI (CC50/IC50) [1]: 1.247
- CC50 (Huh7 parental cells): 6.68 µM

Structure (SMILES): CN(C)[C@H]1CC[C@@H](c2ccc(Cl)c(Cl)c2)c2ccc(C(N)=O)cc21 [(5S,8S)-5-(3,4-dichlorophenyl)-8-(dimethylamino)-5,6,7,8-tetrahydronaphthalene-2-carboxamide]
- CC50 (in vitro; CC50 (uM)): 20.7 µM
- CC50 (in vitro; CC50 (uM) [SG]): 21.7 ± 1.44 µM
- IC90 [1]: 8.73 µM
- IC50 ([1]; read-out: IC50 (uM) [SG]): 3.18 µM
- IC50 ([2]; Huh-7): 2.96 µM
- IC90 ([2]; Huh-7): 8.77 ± 0.05 µM
- IC50 [2, 4]: 2.62 ± 0.48 µM
- Emax [2, 7]: 94.8%
- Emax [2, 5]: 94.3 ± 0.7%
- CC50 (Huh7 parental cells; human): 23.7 µM

Structure (SMILES): CSc1ccc(Oc2ccc(Br)cc2CN(C)C)cc1C [Compound 9, (5-bromo-2-(3-methyl-4-(methylthio)phenoxy)phenyl)-N,N-dimethylmethanamine]
- CC50 (in vitro; CC50 (uM) [SG]): 54.8 µM
- IC50 [2, 4]: 14.5 µM
- Emax [2, 5]: 79%
- CC50 (Huh7 parental cells; human): > 50 µM

Structure (SMILES): CNCc1cc(S(N)(=O)=O)ccc1Oc1ccc(SC)c(C)c1 [Compound 48, 4-(3-methyl-4-(methylthio)phenoxy)-3-((methylamino)methyl)benzenesulfonamide]
- CC50 (in vitro; CC50 (uM)): 39.6 µM
- CC50 (in vitro; CC50 (uM) [SG]): 39.6 µM
- IC90 [1]: 8.26 ± 2.49 µM
- IC50 ([1]; read-out: IC50 (uM) [SG]): 2.26 ± 0.11 µM
- IC50 ([2]; Huh-7): 2.33 µM
- IC90 ([2]; Huh-7): 10 µM
- IC50 [2, 4]: 2.33 µM
- Emax [2, 5]: 95.5%
- Emax [2, 6]: 95.5%
- IC50 ([2]; Huh-7, read-out: SA IC50 (uM)): 2.33 µM
- CC50 (Huh7 parental cells; human): > 50 µM

Structure (SMILES): CN(C)[C@H]1CC[C@@H](c2ccc(Cl)c(Cl)c2)c2ccc(C(=O)NC3CC3)cc21 [N,N-Dimethyl Sertraline A-Ring Reverse Cyclopropane Carboxam] [(5S,8S)—N-cyclopropyl-5-(3,4-dichlorophenyl)-8-(dimethylamino)-5,6,7,8-tetrahydronaphthalene-2-carboxamide]
- IC50 ([1]; read-out: IC50 (uM) [SG]): 8.63 µM
- CC50 (Huh7 parental cells; human): 18.2 µM

Structure (SMILES): CN[C@H]1CC[C@@H](c2ccc(Cl)c(Cl)c2)c2ccc(NS(C)(=O)=O)cc21 [Sertraline (Reverse) Methanesulfonamide, N-((5S,8S)-5-(3,4-dichlorophenyl)-8-(methylamino)-5,6,7,8-tetrahydronaphthalen-2-yl)methanesulfonamide]
- CC50 (in vitro; CC50): 12.9 µM
- CC50 (in vitro; CC50 (uM)): 12.9 ± 0.3 µM
- CC50 (in vitro; CC50 (uM) [SG]): 12.9 ± 0.3 µM
- BBB/Neurotransmitter Binding (nM) NRI (NRI): 60 nM
- Emax [2, 8]: 83.3 ± 20.2%
- IC50 ([2]; Huh-7, 48 h): 6.43 µM
- Emax [2, 9]: 95%
- IC50 ([2]; Huh-7, 72 h): 3.99 ± 0.8 µM
- IC50 [2, 4]: 3.99 ± 0.8 µM
- Emax [2, 5]: 83.3 ± 20.2%
- Emax [2, 6]: 83.3 ± 20.2%
- IC50 ([2]; Huh-7, read-out: SA IC50 (uM)): 3.99 ± 0.8 µM
- Pharmcokinetics: Brain levels compared with sertraline [3]: lower sertraline
- Pharmcokinetics: Liver levels compared with sertraline [3]: much greater
- Pharmcokinetics: overall assessment [3]: Optimal PK, Liver levels

Structure (SMILES): CN[C@H]1CC[C@@H](c2ccc(Cl)c(Cl)c2)c2ccc(CN)cc21 [Sertraline A-Ring Methanamine, (1S,4S)-7-(aminomethyl)-4-(3,4-dichlorophenyl)-N-methyl-1,2,3,4-tetrahydronaphthalen-1-amine]
- CC50 (in vitro; CC50 (uM)): 3.7 µM
- CC50 (in vitro; CC50 (uM) [SG]): 3.7 µM
- IC50 ([1]; read-out: IC50 (uM) [SG]): 1.67 µM
- IC50 ([2]; Huh-7): 1.6 µM
- IC90 ([2]; Huh-7): 3.28 µM
- IC50 [2, 4]: 1.59 µM
- Emax [2, 7]: 85.9%
- Emax [2, 5]: 85.9%
- Emax [2, 6]: 85.9%
- IC50 ([2]; Huh-7, read-out: SA IC50 (uM)): 1.59 µM
- CC50 (Huh7 parental cells; human): 3.68 µM

Structure (SMILES): CN[C@H]1CC[C@@H](c2ccc(Cl)c(Cl)c2)c2ccc(C(N)=O)cc21 [Sertraline A-ring carboxamide]
- IC90 [1]: 5.4 ± 1.81 µM
- Max Effect@CC30 (inhibition) [1]: 94.5 ± 0.7%
- Max effect @CC30 (%) [1]: 94.5 ± 0.7%
- IC50 ([1]; read-out: IC50 (uM) [SG]): 1.8 ± 0.18 µM
- IC50 ([1]; read-out: SA IC50): 1.8 µM
- BBB/Neurotransmitter Binding (nM) NRI (NRI): 410 nM
- Pharmcokinetics: Brain levels compared with sertraline [3]: IC50, Brain levels lower
- Pharmcokinetics: overall assessment [3]: Optimal PK. Liver
- CC50 (Huh7 parental cells): 16.2 ± 0.57 µM

Structure (SMILES): CNC1CCC(c2ccccc2OC)c2ccccc21 (stereo not drawn) [Sertraline B-Ring Ortho-Methoxy]
- Max Effect [1]: 24%
- Synergy Score [1]: 0.81
- CC50 (Huh7 parental cells): > 22.3 µM

Structure (SMILES): CNC1CCC(c2cccs2)c2ccccc21 (stereo not drawn) [Sertraline B-ring 2-Thiophene]
- Max Effect@CC30 (inhibition) [1]: 42%
- IC50 ([1]; read-out: IC50 (uM) [SG]): 52.3 µM
- CC50 (Huh7 parental cells): 88.5 µM

Structure (SMILES): CNC1CCC(c2ccccc2OC)c2ccccc21 (stereo not drawn) [Sertraline B-ring Ortho Methoxy, 4-(2-methoxyphenyl)-N-methyl-1,2,3,4-tetrahydronaphthalen-1-amine]
- CC50 (in vitro; CC50 (uM)): 58.6 µM
- CC50 (in vitro; CC50 (uM) [SG]): 58.6 µM
- CC50 (Huh7 parental cells; human): > 50 µM

Structure (SMILES): CNC1CCC(c2cccc(OC)c2)c2ccccc21 (stereo not drawn) [Sertraline B-ring m-Methoxy]
- Max Effect@CC30 (inhibition) [1]: 27.70%
- CC50 (Huh7 parental cells): > 50 µM

Structure (SMILES): CN[C@H]1CC[C@@H](c2ccc(Cl)c(Cl)c2)c2ccccc21 [Sertraline HCL, Sertraline HCl, reference compound]
- CC50 at 72 h (in vitro; CC50 (uM)): 11.8 ± 2.09 µM
- CC50 (in vitro; CC50 (uM) [SG]): 11.7 ± 2.03 µM
- Emax [2, 8]: 62 ± 11.2%
- Emax [2, 5]: 62.6 ± 21.5%
- CC50 (Huh7 parental cells; human): 11.3 µM

Structure (SMILES): CN[C@H]1CC[C@@H](c2ccc(Cl)c(Cl)c2)c2ccc(S(=O)(=O)NC)cc21 [Sertraline Sulfonamide, (5S,8S)-5-(3,4-dichlorophenyl)-N-methyl-8-(methylamino)-5,6,7,8-tetrahydronaphthalene-2-sulfonamide]
- CC50 (in vitro; CC50): 11.6 µM
- CC50 (in vitro; CC50 (uM)): 13.04 ± 0.1 µM
- CC50 (in vitro; CC50 (uM) [SG]): 13.04 ± 0.1 µM
- Synergy Score [1]: 0.43
- TI (CC50/IC50) [1]: 1.605
- Emax [2, 8]: 40.5 ± 5%
- IC50 ([2]; Huh-7, 48 h): 7.26 µM
- Emax [2, 9]: 94%
- IC50 ([2]; Huh-7, 72 h): 6.87 ± 0.2 µM
- IC50 [2, 4]: 6.87 ± 0.2 µM
- Emax [2, 5]: 40.5 ± 5%

Structure (SMILES): CSc1ccc(Oc2ccc(S(N)(=O)=O)cc2CN(C)C)cc1C [UK-416244, 3-((dimethylamino)methyl)-4-(3-methyl-4-(methylthio)phenoxy)benzenesulfonamide, reference compound]
- CC50 (in vitro; CC50 (uM)): 327 µM
- CC50 (in vitro; CC50 (uM) [SG]): > 50 µM
- BBB/Neurotransmitter Binding (nM) SRI (SRI): <5 nM
- IC90 [1]: 6.55 µM
- IC50 ([1]; read-out: IC50 (uM) [SG]): 1.74 µM
- Emax [2, 8]: 97%
- IC50 ([2]; Huh-7): 1.41 µM
- IC90 ([2]; Huh-7): 6.17 ± 3.23 µM
- IC50 ([2]; Huh-7, 72 h): 1.63 µM
- IC90 ([2]; Huh-7, 72 h): 9.86 µM
- IC50 [2, 4]: 1.41 ± 0.2 µM
- Emax [2, 5]: 97.2 ± 1.4%
- Emax [2, 6]: 97.2 ± 1.4%
- IC50 ([2]; Huh-7, read-out: SA IC50 (uM)): 1.41 ± 0.2 µM
- Pharmcokinetics: Brain levels compared with sertraline [3]: lower than sertraline
- Pharmcokinetics: Liver levels, fold over IC50 [3]: sertraline, 511 fold over
- Pharmcokinetics: overall assessment [3]: Optimal PK, Liver
